# According to patent US20110130380A1, “Heteroaryl Kinase Inhibitors” (priority 2009, published 2011):
# Molecular target: Cdk9/cyclinT1 (Homo sapiens, UniProt P50750)
# Assay: Cdk9/cyclinT1 IMAP Protocol (fluorescence polarization kinase assay)
# Conditions: Cdk9_cyclinT1_IC50, Table V; generated using one of the two Cdk9/cyclinT1 assays (IMAP or Alpha Screen), not stated which; ATP 6 uM
# Sequence of Cdk9/cyclinT1 (P50750 whole entry): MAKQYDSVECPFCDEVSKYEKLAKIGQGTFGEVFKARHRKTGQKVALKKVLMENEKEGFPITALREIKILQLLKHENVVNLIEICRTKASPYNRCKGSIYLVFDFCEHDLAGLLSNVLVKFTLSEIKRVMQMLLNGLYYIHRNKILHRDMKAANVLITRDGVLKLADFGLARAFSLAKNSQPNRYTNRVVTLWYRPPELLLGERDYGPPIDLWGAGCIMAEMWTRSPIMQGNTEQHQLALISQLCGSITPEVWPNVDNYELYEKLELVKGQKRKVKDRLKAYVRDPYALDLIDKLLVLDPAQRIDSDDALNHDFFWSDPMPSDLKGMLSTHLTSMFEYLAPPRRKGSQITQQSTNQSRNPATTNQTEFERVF
# Sequence of Cdk9/cyclinT1 (O60563 whole entry partner): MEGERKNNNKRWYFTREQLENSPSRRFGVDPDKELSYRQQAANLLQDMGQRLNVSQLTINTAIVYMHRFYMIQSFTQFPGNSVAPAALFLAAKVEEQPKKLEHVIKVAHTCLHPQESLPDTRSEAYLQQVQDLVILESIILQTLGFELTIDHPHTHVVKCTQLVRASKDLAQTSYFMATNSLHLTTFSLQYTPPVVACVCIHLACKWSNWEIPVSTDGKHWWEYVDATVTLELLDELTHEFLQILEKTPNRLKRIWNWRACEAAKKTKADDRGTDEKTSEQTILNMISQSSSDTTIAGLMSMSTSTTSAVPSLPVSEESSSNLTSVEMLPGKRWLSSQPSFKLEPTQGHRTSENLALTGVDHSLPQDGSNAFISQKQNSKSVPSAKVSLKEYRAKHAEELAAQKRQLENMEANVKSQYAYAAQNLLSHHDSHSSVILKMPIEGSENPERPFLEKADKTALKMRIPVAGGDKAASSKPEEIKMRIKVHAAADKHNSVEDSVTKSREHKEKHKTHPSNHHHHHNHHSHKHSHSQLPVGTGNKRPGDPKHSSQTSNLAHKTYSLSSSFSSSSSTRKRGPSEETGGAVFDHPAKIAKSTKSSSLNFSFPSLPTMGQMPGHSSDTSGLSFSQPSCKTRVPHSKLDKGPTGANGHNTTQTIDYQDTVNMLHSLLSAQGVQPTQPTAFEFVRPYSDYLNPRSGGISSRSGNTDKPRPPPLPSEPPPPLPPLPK
row,SMILES,IC50 [nM]
1,"O=C(Nc1cc(-c2ccc(F)c(NCC3CCOCC3)n2)c(Cl)cn1)[C@H]1CNCCO1 [Example 205, (R)-Morpholine-2-carboxylic acid {5′-chloro-5-fluoro-6-[(tetrahydro-pyran-4-ylmethyl)-amino]-[2,4′]bipyridinyl-2′-yl}-amide]",5
2,"CC[C@@H]1CC[C@@H](C(=O)Nc2cc(-c3ccc(F)c(NCC4CCOCC4)n3)c(Cl)cn2)CN1 (racemic) [Example 250, (3R,6R)-/(3S,6S)-6-Ethyl-piperidine-3-carboxylic acid {5′-chloro-5-fluoro-6-[(tetrahydro-pyran-4-ylmethyl)-amino]-[2,4′]bipyridinyl-2′-yl}-amide]",1
3,"COCCCNc1cccc(-c2cc(NC(=O)[C@@H]3CCCNC3)ncc2Cl)n1 [Example 28, (R)-Piperidine-3-carboxylic acid [5′-chloro-6-(3-methoxy-propylamino)-[2,4′]bipyridinyl-2′-yl]-amide]",21
4,"O=C(Nc1cc(-c2ccc(F)c(NCC3CCOCC3)n2)c(Cl)cn1)[C@@H]1CCNC1 [Example 143, (R)-Pyrrolidine-3-carboxylic acid {5′-chloro-5-fluoro-6-[(tetrahydro-pyran-4-ylmethyl)-amino]-[2,4′]bipyridinyl-2′-yl}-amide]",1
5,"O=C(Nc1cc(-c2cccc(NCc3cncc(F)c3)n2)c(Cl)cn1)[C@@H]1CCCNC1 [Example 41, (R)-Piperidine-3-carboxylic acid {5′-chloro-6-[(5-fluoro-pyridin-3-ylmethyl)-amino]-[2,4′]bipyridinyl-2′-yl}-amide]",< 8
6,"CC1(C)CC(CNc2cccc(-c3cc(NC(=O)[C@@H]4CCCNC4)ncc3Cl)n2)CCO1 (stereo partly drawn) [Example 94, (R)-Piperidine-3-carboxylic acid {5′-chloro-6-[(2,2-dimethyl-tetrahydro-pyran-4-ylmethyl)-amino]-[2,4′]bipyridinyl-2′-yl}-amide]",< 8
7,"COC[C@@H]1C[C@@H](C(=O)Nc2cc(-c3nc(NCC4CCOCC4)ccc3Cl)c(Cl)cn2)CN1 [Example 185, (3R,5S)-5-Methoxymethyl-pyrrolidine-3-carboxylic acid {3,5′-dichloro-6-[(tetrahydro-pyran-4-ylmethyl)-amino]-[2,4′]bipyridinyl-2′-yl}-amide]",1
8,"O=C(Nc1cc(-c2cccc(NCCN3CCCC3=O)n2)c(Cl)cn1)[C@@H]1CCCNC1 [Example 32, (R)-Piperidine-3-carboxylic acid {5′-chloro-6-[2-(2-oxo-pyrrolidin-1-yl)-ethylamino]-[2,4′]bipyridinyl-2′-yl}-amide]",19

# The next lines start with the values.
row,IC50 [nM],SMILES
1,31,"CN1CCCCC(C(=O)Nc2cc(-c3nc(NCC4CCOCC4)ccc3Cl)c(Cl)cn2)C1 (stereo not shown) [Example 200, 1-Methyl-azepane-3-carboxylic acid {3,5′-dichloro-6-[(tetrahydro-pyran-4-ylmethyl)-amino]-[2,4′]bipyridinyl-2′-yl}-amide]"
2,18,"C[C@H]1CC[C@@H](C(=O)Nc2cc(-c3cccc(NCC4CCOCC4)n3)c(Cl)cn2)CN1 (racemic) [Example 126, (3R,6S)-/(3S,6R)-6-Methyl-piperidine-3-carboxylic acid {5′-chloro-6-[(tetrahydro-pyran-4-ylmethyl)-amino]-[2,4′]bipyridinyl-2′-yl}-amide]"
3,5,"O=C(Nc1cc(-c2nc(NCC3CCOCC3)ccc2F)c(Cl)cn1)[C@H]1CNCCO1 [Example 158, (R)-Morpholine-2-carboxylic acid {5′-chloro-3-fluoro-6-[(tetrahydro-pyran-4-ylmethyl)-amino]-[2,4′]bipyridinyl-2′-yl}-amide]"
4,1,"O=C(Nc1cc(-c2ccc(F)c(NCC3CCOCC3)n2)c(Cl)cn1)C1CNCCOC1 (stereo not shown) [Example 201, [1,4]Oxazepane-6-carboxylic acid {5′-chloro-5-fluoro-6-[(tetrahydro-pyran-4-ylmethyl)-amino]-[2,4′]bipyridinyl-2′-yl}-amide]"

# Same assay, conditions: Cdk9_cyclinT1_IC50, generated using one of the two Cdk9/cyclinT1 assays (IMAP or Alpha Screen), not specified per value; ATP 6 uM
row,IC50 [nM],SMILES
1,376,"O=C(Nc1cc(-c2cccnc2)c(Cl)cn1)[C@@H]1CCCNC1 [Example 305, (R)-Piperidine-3-carboxylic acid (5′-chloro-[3,4′]bipyridinyl-2′-yl)-amide]"
